Experimental findings from PMC5130295, “Structural basis for the disaggregase activity and regulation of Hsp104” (eLife, 2016) are described below.

For assay [1], the target named is T1, CtHsp104 (Thermochaetoides thermophila, UniProt G0S4G4, D295A/E296A).
T1 construct: gene CTHT_0022720; full-length, synthetic gene, pET21a, C-terminal His6 tag, E. coli; NTD not visible in the crystal structure
In words: X-ray crystal structure, […] Å. Format: binding. Conditions: ADP bound in AAA1 and AAA2 active sites; incubated with ADP and AlF3, 3 mM each; pH 5.8.

Another assay has as its target T2, ScHsp104 (Saccharomyces cerevisiae, UniProt P31539).
T2 construct: gene HSP104; cloned from yeast genomic DNA, pET21a, C-terminal His6 tag, E. coli
As to the kind of experiment: coupled ATPase assay (pyruvate kinase / lactate dehydrogenase). Type of assay: biochemical. To be noted: 5 mM MgCl2; varying ATP; Hill fit.

The target of assay [2] is T3, CtHsp104 (Thermochaetoides thermophila, UniProt G0S4G4).
T3 construct: gene CTHT_0022720; full-length, synthetic gene, pET21a, C-terminal His6 tag, E. coli; NTD not visible in the crystal structure
T3 sequence (G0S4G4 entry or part of it): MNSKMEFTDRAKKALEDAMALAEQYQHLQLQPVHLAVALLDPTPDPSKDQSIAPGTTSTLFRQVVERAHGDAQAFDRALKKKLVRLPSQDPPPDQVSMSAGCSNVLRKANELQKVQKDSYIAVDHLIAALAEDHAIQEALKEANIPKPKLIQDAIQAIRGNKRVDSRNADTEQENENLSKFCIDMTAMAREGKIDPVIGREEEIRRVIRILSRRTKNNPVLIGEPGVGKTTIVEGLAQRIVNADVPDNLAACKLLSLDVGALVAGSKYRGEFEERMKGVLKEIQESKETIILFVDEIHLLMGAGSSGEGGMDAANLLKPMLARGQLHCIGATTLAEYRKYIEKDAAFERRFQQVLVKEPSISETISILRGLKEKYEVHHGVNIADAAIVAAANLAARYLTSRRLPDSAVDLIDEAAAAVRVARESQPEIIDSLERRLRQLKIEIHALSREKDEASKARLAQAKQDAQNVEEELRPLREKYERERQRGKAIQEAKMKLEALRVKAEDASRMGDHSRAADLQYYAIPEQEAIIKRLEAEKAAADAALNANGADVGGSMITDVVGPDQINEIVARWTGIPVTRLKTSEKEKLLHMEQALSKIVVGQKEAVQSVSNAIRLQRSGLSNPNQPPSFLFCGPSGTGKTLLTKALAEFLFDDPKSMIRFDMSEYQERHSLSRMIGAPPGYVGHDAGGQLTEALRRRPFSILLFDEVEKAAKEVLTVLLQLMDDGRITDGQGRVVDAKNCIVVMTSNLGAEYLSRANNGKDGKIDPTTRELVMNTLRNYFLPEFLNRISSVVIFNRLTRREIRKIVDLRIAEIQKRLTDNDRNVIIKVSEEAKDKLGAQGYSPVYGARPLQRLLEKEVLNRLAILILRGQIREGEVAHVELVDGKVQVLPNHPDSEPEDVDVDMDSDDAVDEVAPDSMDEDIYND
The description is as above. To be noted: 5 mM MgCl2; varying ATP; Hill fit. Type of assay: biochemical.

Assay [3] concerns the target CtHsp104 catalytic inactive double Walker A mutant (Chaetomium thermophilum). As to the kind of experiment: SEC; SEC profiles with elution volumes of marker proteins. A general note: In gel filtration, larger molecules generally elute earlier.
For assay [4], the target named is CtHsp104 double Walker B mutant (Chaetomium thermophilum). The description is as above.
The target in assay [5] is Hsp104 disaggregase from Chaetomium thermophilum, wild type (Chaetomium thermophilum). Described as above.

T1 sequence (G0S4G4 entry or part of it D295A/E296A): as the sequence (G0S4G4 entry or part of it) above, with D295A, E296A counted along it
T2 sequence (P31539 whole entry): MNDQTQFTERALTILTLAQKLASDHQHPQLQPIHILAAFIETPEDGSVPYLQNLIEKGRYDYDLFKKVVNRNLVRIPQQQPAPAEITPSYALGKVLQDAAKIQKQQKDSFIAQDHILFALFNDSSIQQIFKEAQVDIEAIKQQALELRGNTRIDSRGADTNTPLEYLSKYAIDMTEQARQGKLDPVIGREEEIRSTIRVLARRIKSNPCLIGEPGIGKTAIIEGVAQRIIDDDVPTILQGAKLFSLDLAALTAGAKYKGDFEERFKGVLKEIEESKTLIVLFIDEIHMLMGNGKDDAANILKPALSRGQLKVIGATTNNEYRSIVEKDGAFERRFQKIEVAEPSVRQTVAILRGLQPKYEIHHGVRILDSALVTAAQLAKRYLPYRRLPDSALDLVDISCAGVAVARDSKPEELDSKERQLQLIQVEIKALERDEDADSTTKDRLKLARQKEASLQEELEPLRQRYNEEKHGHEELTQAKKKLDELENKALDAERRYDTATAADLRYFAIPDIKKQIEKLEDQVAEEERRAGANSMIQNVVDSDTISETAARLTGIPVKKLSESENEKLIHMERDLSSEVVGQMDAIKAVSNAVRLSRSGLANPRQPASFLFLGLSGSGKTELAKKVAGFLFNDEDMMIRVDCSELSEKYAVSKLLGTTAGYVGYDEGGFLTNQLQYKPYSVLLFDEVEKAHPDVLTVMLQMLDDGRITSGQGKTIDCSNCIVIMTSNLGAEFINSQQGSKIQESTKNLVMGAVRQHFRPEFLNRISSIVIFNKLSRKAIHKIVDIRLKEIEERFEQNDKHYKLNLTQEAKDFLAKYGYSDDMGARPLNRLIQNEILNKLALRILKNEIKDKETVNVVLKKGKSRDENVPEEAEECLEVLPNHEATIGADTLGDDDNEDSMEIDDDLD

For the compound `Nc1ncnc2c1ncn2[C@@H]1O[C@H](COP(=O)(O)OP(=O)(O)O)[C@@H](O)[C@H]1O` [ADP], the “X-ray crystal structure, 3.7 Å” value at CtHsp104 [1] was “The crystal structure of the double Walker-B mutant in complex with ADP was determined”.
With `Nc1ncnc2c1ncn2[C@@H]1O[C@H](COP(=O)(O)OP(=O)(O)OP(=O)(O)O)[C@@H](O)[C@H]1O` [ATP], the “coupled ATPase assay (pyruvate kinase / lactate dehydrogenase)” value is “ATPase and GFP unfolding activity of wt and ΔPS1 mutants of Ct and ScHsp104” at ScHsp104; “ATPase activity was determined by a coupled enzymatic reaction” on CtHsp104 [2].
In assay [3], “CtHsp104 catalytic inactive double Walker A mutant (natural protein)” came in with a stoichiometry N of 6.
In assay [4], “CtHsp104 double Walker B mutant (natural protein)” gave a stoichiometry N of 6.
In assay [5], “Hsp104 disaggregase from Chaetomium thermophilum, wild type (natural protein)” displayed a stoichiometry N of 6.

For orientation: stoichiometry N means a count of units in the complex or per binding partner.
